Source: US11154515B2, “Pharmaceutical compositions comprising cannabidiol and beta-caryophyllene and methods for their use” (priority 2017, dated 2021)

What was measured:
[1] = test system: male NMRI mice, mechanonociceptive threshold of the hind paws; experiment: Carrageenan-induced mechanical hyperalgesia, mechanonociceptive threshold by dynamic plantar aesthesiometry; assay type: in vivo, mouse
Description: (§1) CBD and BCP solutions (≥80%, FCC, FG) were dissolved in a solution containing 10% Tween 80 and 90% saline (vehicle) and were freshly prepared immediately before use. Mice were treated with drug solutions or vehicle control by intraperitoneal (i.p.) injection at a volume of 0.1 mL/10 g body weight. Acute paw injury was induced by intraplantar injection of 20 μL 3% carrageenan (dissolved in 0.9% NaCl, Sigma Aldrich, St. Louis, Mo., USA) into the right hind paw.
(§2) Experiments were performed on 7-16-week-old male NMRI mice (30-50 g) provided with standard chow and water ad libitum. Mice were divided into groups and treated with a single dose of vehicle control (VEH), CBD, BCP, or CBD+BCP delivered i.p. 30 minutes after drug administration, measurements were taken to determine baseline values for mechanonociceptive thresholds and paw volumes. 35 minutes after drug administration, 20 μL of 3% carrageenan was injected intraplantarly (i.pl.) in the right hind paws. 3 hours after carrageenan administration, additional measurements were taken to determine the mechanonociceptive thresholds and paw volumes of the ipsilateral and contralateral paws.
The mechanonociceptive threshold of the hind paws were measured by dynamic plantar aesthesiometry (DPA, Ugo Basile 37400, Comerio, Italy). Mice were placed into plexiglass boxes with a wire grid floor. After acclimation, the plantar surface was touched with a straight metal filament, lifting with increasing upward force (until the animal withdrew his paw or until the maximum force of 10 g was reached (maximum force of 10 g reached within 4 s). Mechanonociceptive thresholds are expressed in gram (g), while mechanical hyperalgesia is represented as a percentage decrease from the initial withdrawal thresholds (i.e., before drug and carrageenan administration) (Bolcskei K. et al., Pain. 2005; 117:368-76).

IL-1β gene expression = IL-1β gene expression (RT-qPCR) in LPS-stimulated RAW 264.7 macrophages; assay type: cell-based, murine
Description: (§3) RAW 264.7 cells were cultured in Dulbecco's Modified Eagle's Medium (high glucose DMEM, Sigma-Aldrich) supplemented with 10% fetal bovine serum (FBS), 1% L-glutamine, 1% Sodium-pyruvate, 1% Penicillin-Streptomycin (culture medium). The cells were maintained in T75 flasks at 37° C. in humidified air containing 5% CO2 in an incubator and passaged every second-third day.
(§4) For drug treatment and LPS stimulation, 200,000 cells/well were seeded in 1.5 mL culture medium in a 6-well plate and incubated to allow attachment to the cell culture plate. After attachment, cells were incubated with various concentrations of CBD (0.1 μM, 0.3 μM, 1 μM, 3 μM, 5 μM, 10 μM, and 30 μM) or BCP (0.001 μM, 0.01 μM, 0.013 μM, 0.1 μM, 0.3 μM, 1 μM, 3 μM, 5 μM, 10 μM, and 100 μM), or vehicle (control) for 2 hrs. After the 2 h incubation, 0.1 μg/mL LPS was added to each well to induce inflammation and cells were incubated with LPS for 24 hrs.
(§5) After the 24 h incubation with LPS, the cells were harvested and gene expression of the pro-inflammatory cytokines interleukin (IL)-1α, IL-1β were measured by quantitative real-time polymerase chain reaction (RT-qPCR) on a Roche Light Cycler 480 QPCR System (Roche Applied Sciences) using the 5′ nuclease assay. Total RNA was isolated using TRIzol (LifeTechnologies), DNase treatment was performed according to the manufacturer's protocol, and then 1 μg of total RNA was reverse-transcribed into cDNA using High Capacity cDNA Kit from Life Technologies Corporation. PCR amplification was performed using the TaqMan primers and probes (assay IDs: Mm00439620_m1 for murine Il1a; Mm00434228_m1 for murine Il1b, Mm00446190_m1 for murine 116, Mm00441263_m1 for murine Cxcl15/Il8). Expression of the housekeeping gene, Gapdh, was used (assay ID: […]) as an internal control. The amount of the transcripts was normalized to those of the housekeeping gene using the ΔCT method. Results are expressed as % decrease in the expression levels of IL1α and IL1β in drug-treated, LPS-stimulated groups compared to the expression of each cytokine gene in the vehicle-treated, LPS-stimulated group (regarded as 100%). All experiments were repeated 2-3 times.
(§6) For statistical analysis, data were analyzed and graphs were plotted using Origin Pro Plus 6.0 software (Microcal, Northampton, Mass., USA) and Student's two-tailed two samples t-test. p<0.05 values were regarded as significant differences.

IL-1α gene expression = IL-1α gene expression (RT-qPCR) in LPS-stimulated RAW 264.7 macrophages; assay type: cell-based, murine; conditions: for % decrease in IL1α expression: Table 3A experiment; for % Inhibition Alone, IL-1α gene expression: Table 3B/6 experiment
Description: as §3, §4, §5, §6

[2] = test system: male NMRI mice, carrageenan-induced paw edema; experiment: Carrageenan-induced paw edema, plethysmometry; assay type: in vivo, mouse
Description: as §1, §2
Baseline and post-carrageenan injection paw volume was determined by plethysmometry (Ugo Basile Plethysmometer 7140, Comerio, Italy) and expressed in cubic centimeter (cm^3). Paw edema was presented as percentage increase of baseline values obtained prior to carrageenan administration (Bolcskei K. et al., Pain. 2005; 117:368-76).

[3] = single doses i.p. (CBD 0.5, 1, 10, 30 mg/kg; BCP 1, 5, 10, 30 mg/kg), 30 min after administration
[4] = Table 4 Exp. 1: CBD 0.1 μM, BCP 0.013 μM, CBD + BCP 0.1 μM + 0.013 μM
[5] = Table 4 Exp. 2: CBD 1 μM, BCP 0.13 μM, CBD + BCP 1 μM + 0.13 μM

## C=C1CC/C=C(\C)CC[C@H]2[C@H]1CC2(C)C [BCP, (E)-beta-caryophyllene]
[1]; 30 mg/kg i.p., vs vehicle, p<0.001
  carrageenan-induced mechanical hyperalgesia: significantly reduced
[1]; CBD 1 mg/kg, BCP 10 mg/kg
  effect on mechanonociceptive threshold when applied alone: negligible effects
[1]; most CBD and BCP single pre-treatments, three hours after carrageenan
  suppression of the mechanonociceptive threshold by carrageenan: only mildly influenced
[1]; [3]
  basal mechanonociceptive threshold vs vehicle-treated mice: none of the investigated single doses of CBD and BCP influenced the basal mechanonociceptive threshold
IL-1β gene expression; 0.001 μM BCP alone
  % Inhibition BCP Alone (IL-1β gene expression): 0%
IL-1β gene expression; 0.01 μM BCP alone
  % Inhibition BCP Alone (IL-1β gene expression): 0%
IL-1β gene expression; 0.1 μM BCP alone
  % Inhibition BCP Alone (IL-1β gene expression): 1.8 ± 0.2%
IL-1β gene expression; 0.3 μM BCP alone
  % Inhibition BCP Alone (IL-1β gene expression): 5.8 ± 1.2%
IL-1β gene expression; 1 μM BCP alone
  % Inhibition BCP Alone (IL-1β gene expression): 0%
IL-1β gene expression; 3 μM BCP alone
  % Inhibition BCP Alone (IL-1β gene expression): 0%
IL-1β gene expression; 10 μM BCP alone
  % Inhibition BCP Alone (IL-1β gene expression): 8.2 ± 4.1%
IL-1β gene expression; 100 μM BCP alone, * indicates possibly cytotoxicity
  % Inhibition BCP Alone (IL-1β gene expression): *94.2 ± 11.3%
IL-1β gene expression; CBD 0.1 μM, BCP 0.013 μM (p<0.01), combination 0.1 μM + 0.013 μM (7.7:1, p<0.001)
  reduction of LPS-induced expression of IL-1β vs untreated, LPS-stimulated controls (FIG. 3B): did significantly reduce
IL-1β gene expression; Table 3A experiment, single agent 0.1 μM
  % decrease in IL1β expression: 11%
IL-1β gene expression; Table 3A experiment, single agent 1 μM
  % decrease in IL1β expression: 19%
IL-1β gene expression; Table 3A experiment, single agent 5 μM
  % decrease in IL1β expression: 62%
IL-1β gene expression; Table 3A experiment, single agent 10 μM
  % decrease in IL1β expression: 7%
IL-1β gene expression; Table 3B experiment, single agent 0.001 μM
  % decrease in IL1β expression: 0%
IL-1β gene expression; Table 3B experiment, single agent 0.01 μM
  % decrease in IL1β expression: 0%
IL-1β gene expression; Table 3B experiment, single agent 0.1 μM
  % decrease in IL1β expression: 1.8 ± 0.2%
IL-1β gene expression; Table 3B experiment, single agent 0.3 μM
  % decrease in IL1β expression: 5.8 ± 1.2%
IL-1β gene expression; Table 3B experiment, single agent 1.0 μM
  % decrease in IL1β expression: 0%
IL-1β gene expression; Table 3B experiment, single agent 3.0 μM
  % decrease in IL1β expression: 0%
IL-1β gene expression; Table 3B experiment, single agent 10 μM
  % decrease in IL1β expression: 8.2 ± 4.1%
IL-1β gene expression; Table 3B experiment, single agent 100 μM
  % decrease in IL1β expression: 94.2 ± 11.3%
IL-1β gene expression; [4]
  % decrease in IL-1β gene expression: 34%
IL-1β gene expression; [5]
  % decrease in IL-1β gene expression: 0%
IL-1α gene expression; CBD 0.1 μM, BCP 0.013 μM (p<0.001), combination 0.1 μM + 0.013 μM (7.7:1, p<0.001)
  reduction of LPS-induced expression of IL-1α vs untreated, LPS-stimulated controls (FIG. 3A): did significantly reduce
IL-1α gene expression; IL-1α and IL-1β gene expression
  anti-inflammatory actions when applied alone: only minor (if any) anti-inflammatory actions
IL-1α gene expression; single agent 0.1 μM
  % decrease in IL1α expression: 2%
  % Inhibition Alone, IL-1α gene expression: 1.8 ± 0.2%
IL-1α gene expression; single agent 1 μM
  % decrease in IL1α expression: 18%
  % Inhibition Alone, IL-1α gene expression: 0%
IL-1α gene expression; single agent 5 μM
  % decrease in IL1α expression: 26%
IL-1α gene expression; single agent 10 μM
  % decrease in IL1α expression: 0%
  % Inhibition Alone, IL-1α gene expression: 8.2 ± 4.1%
IL-1α gene expression; single agent 0.001 μM
  % Inhibition Alone, IL-1α gene expression: 0%
IL-1α gene expression; single agent 0.01 μM
  % Inhibition Alone, IL-1α gene expression: 0%
IL-1α gene expression; single agent 0.3 μM
  % Inhibition Alone, IL-1α gene expression: 5.8 ± 1.2%
IL-1α gene expression; single agent 3 μM
  % Inhibition Alone, IL-1α gene expression: 0%
IL-1α gene expression; [4]
  % decrease in IL-1α gene expression: 32%
IL-1α gene expression; [5]
  % decrease in IL-1α gene expression: 0%
[2]; 30 mg/kg i.p., three hours after carrageenan, vehicle 60%, p<0.0001
  carrageenan-induced paw edema: 20%
[2]; most CBD and BCP single dose pre-treatments, three hours after i.pl. carrageenan
  carrageenan-induced increase of the paw volume: only mildly influenced
[2]; [3]
  basal paw volume vs vehicle-treated mice: none of the investigated single doses of CBD or BCP influenced the basal paw volume
